This assay concerns CD2F1 mice, L1210 leukemia ip, survival T/C. The assay is described as follows: NCI In Vivo Anticancer Drug Screen. Data for tumor model L1210 Leukemia (intraperitoneal) in CD2F1 (CDF1) mice. The note with it: higher = longer survival. The gist of the method:
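Compound-dosed mice with transplantable tumor versus matched vehicle controls; endpoint ratio T/C reported.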

[1] abbreviates: endpoint: mean survival time, dose: 50.0 mg/kg/injection, schedule: Q01DX009 (ip), vehicle: saline with Tween-80.
The mark [2] stands for this setting: endpoint: mean survival time, dose: 100.0 mg/kg/injection, schedule: Q01DX009 (ip), vehicle: saline with Tween-80.
Setting [3] is: endpoint: mean survival time, dose: 200.0 mg/kg/injection, schedule: Q01DX009 (ip), vehicle: saline with Tween-80.
The mark [4] stands for this setting: endpoint: mean survival time, dose: 100.0 mg/kg/injection, schedule: Q04DX003 (ip), vehicle: saline with Tween-80.
[5] abbreviates: endpoint: mean survival time, dose: 200.0 mg/kg/injection, schedule: Q04DX003 (ip), vehicle: saline with Tween-80.
Setting [6] is: endpoint: mean survival time, dose: 400.0 mg/kg/injection, schedule: Q04DX003 (ip), vehicle: saline with Tween-80.
Where [7] appears, read: endpoint: mean survival time, dose: 100.0 mg/kg/injection, schedule: Q01DX001 (ip), vehicle: saline with Tween-80.
Where [8] appears, read: endpoint: mean survival time, dose: 200.0 mg/kg/injection, schedule: Q01DX001 (ip), vehicle: saline with Tween-80.

This passage reports T/C results from PubChem BioAssay AID256 (DTP/NCI, 2004).

“And” between values parts separate entries of the source, which are not always exact repeats. Equal values may be shown once. Toxic doses and inconclusive results are not listed.

For `C[n+]1c(-c2cccc(OCCOCCOc3cccc(-c4c5cc(N)ccc5c5ccc(N)cc5[n+]4C)c3)c2)c2cc(N)ccc2c2ccc(N)cc21`, the T/C reads like this: (endpoint: median survival time, dose: 1.0 mg/kg/injection, schedule: Q01DX009 (ip), vehicle: water) 104 % of control; (endpoint: median survival time, dose: 2.0 mg/kg/injection, schedule: Q01DX009 (ip), vehicle: saline with Tween-80) 101 % of control; (endpoint: median survival time, dose: 2.0 mg/kg/injection, schedule: Q01DX009 (ip), vehicle: water) 114 % of control and 121 % of control; (endpoint: median survival time, dose: 4.0 mg/kg/injection, schedule: Q01DX009 (ip), vehicle: saline with Tween-80) 102 % of control; (endpoint: median survival time, dose: 4.0 mg/kg/injection, schedule: Q01DX009 (ip), vehicle: water) 114 % of control; (endpoint: median survival time, dose: 8.0 mg/kg/injection, schedule: Q01DX009 (ip), vehicle: saline with Tween-80) 104 % of control. Also, the T/C reads like this: (endpoint: median survival time, dose: 8.0 mg/kg/injection, schedule: Q01DX009 (ip), vehicle: water) 123 % of control; (endpoint: median survival time, dose: 16.0 mg/kg/injection, schedule: Q01DX009 (ip), vehicle: saline with Tween-80) 105 % of control; (endpoint: median survival time, dose: 32.0 mg/kg/injection, schedule: Q01DX009 (ip), vehicle: saline with Tween-80) 102 % of control.

On to `Cc1cc(O)c(N=Nc2ccc(Br)cc2)cc1C`, for which the T/C under setting [1] is 97 % of control, the T/C under setting [2] was 93 % of control and the T/C under setting [3] is 97 % of control.

Regarding `CC(=O)C1=C(C)NC(C)=C(C(C)=O)C1C`, the T/C reads like this: under setting [2], 100 % of control; under setting [4], 93 % of control; under setting [3], 95 % of control; under setting [5], 97 % of control; under setting [6], 92 % of control.

On to `NC(=S)c1cccc2ccccc12`, for which the T/C is 105 % of control (endpoint: mean survival time, dose: 100.0 mg/kg/injection, schedule: Q04DX002 (ip), vehicle: Klucel (hydroxypropylcellulose) (HPC)); 98 % of control (endpoint: mean survival time, dose: 200.0 mg/kg/injection, schedule: Q04DX002 (ip), vehicle: Klucel (hydroxypropylcellulose) (HPC)); 110 % of control (endpoint: mean survival time, dose: 400.0 mg/kg/injection, schedule: Q04DX002 (ip), vehicle: Klucel (hydroxypropylcellulose) (HPC)).

On to `Nc1nc(N)c2nc(CSc3ccc(C(=O)NC(CCC(=O)O)C(=O)O)cc3)ccc2n1` (configuration not stated), for which the T/C runs as follows: (endpoint: mean survival time, dose: 0.5 mg/kg/injection, schedule: Q01DX005 (ip), vehicle: sodium bicarbonate) 121 % of control; (endpoint: mean survival time, dose: 2.0 mg/kg/injection, schedule: Q01DX005 (ip), vehicle: sodium bicarbonate) 154 % of control.

As to `O=N[O-].O=N[O-].[NH-]CC[NH-].[Pt+2]`, the T/C (endpoint: mean survival time, dose: 25.0 mg/kg/injection, schedule: Q04DX003 (ip), vehicle: saline with Tween-80) was 101 % of control; the T/C (endpoint: mean survival time, dose: 50.0 mg/kg/injection, schedule: Q04DX003 (ip), vehicle: saline with Tween-80) was 98 % of control; the T/C under setting [4] was 93 % of control.

With `Nc1nc2n[nH]nc2c(=O)[nH]1`, the T/C (endpoint: mean survival time, dose: 0.78 mg/kg/injection, schedule: Q01DX009 (ip), vehicle: saline with Tween-80) was 103 % of control; the T/C (endpoint: mean survival time, dose: 1.56 mg/kg/injection, schedule: Q01DX009 (ip), vehicle: saline with Tween-80) is 115 % of control; the T/C (endpoint: mean survival time, dose: 12.5 mg/kg/injection, schedule: Q01DX009 (ip), vehicle: saline with Tween-80) is 150 % of control; the T/C (endpoint: mean survival time, dose: 25.0 mg/kg/injection, schedule: Q01DX009 (ip), vehicle: saline with Tween-80) was 151 % of control; the T/C (endpoint: mean survival time, dose: 50.0 mg/kg/injection, schedule: Q01DX009 (ip), vehicle: other) is 154 % of control; the T/C under setting [1] was 156 % of control and 158 % of control. For the same compound, the T/C reads like this: (endpoint: mean survival time, dose: 50.0 mg/kg/injection, schedule: Q03DX003 (ip), vehicle: other) 120 % of control; (endpoint: mean survival time, dose: 50.0 mg/kg/injection, schedule: Q04DX003 (ip), vehicle: other) 111 % of control; (endpoint: mean survival time, dose: 75.0 mg/kg/injection, schedule: Q01DX009 (ip), vehicle: saline with Tween-80) 114 % of control; (endpoint: mean survival time, dose: 100.0 mg/kg/injection, schedule: Q01DX001 (ip), vehicle: saline sonified) 108 % of control; (endpoint: mean survival time, dose: 100.0 mg/kg/injection, schedule: Q01DX009 (ip), vehicle: other) 153 % of control; under setting [2], 97 % of control and 107 % of control. For the same compound, the T/C reads like this: (endpoint: mean survival time, dose: 100.0 mg/kg/injection, schedule: Q04DX003 (ip), vehicle: other) 123 % of control; (endpoint: mean survival time, dose: 200.0 mg/kg/injection, schedule: Q01DX001 (ip), vehicle: saline sonified) 108 % of control; (endpoint: mean survival time, dose: 200.0 mg/kg/injection, schedule: Q01DX007 (ip), vehicle: other) 150 % of control; (endpoint: mean survival time, dose: 200.0 mg/kg/injection, schedule: Q01DX009 (ip), vehicle: other) 153 % of control; (endpoint: mean survival time, dose: 200.0 mg/kg/injection, schedule: Q01DX009 (ip), vehicle: saline sonified) 106 % of control; under setting [3], 97 % of control. The T/C was 120 % of control (endpoint: mean survival time, dose: 200.0 mg/kg/injection, schedule: Q03DX003 (ip), vehicle: other); 119 % of control (endpoint: mean survival time, dose: 200.0 mg/kg/injection, schedule: Q04DX003 (ip), vehicle: other); 112 % of control (endpoint: mean survival time, dose: 400.0 mg/kg/injection, schedule: Q01DX001 (ip), vehicle: saline sonified); 164 % of control (endpoint: median survival time, dose: 50.0 mg/kg/injection, schedule: Q01DX009 (ip), vehicle: saline); 164 % of control (endpoint: median survival time, dose: 100.0 mg/kg/injection, schedule: Q01DX009 (ip), vehicle: saline); 164 % of control (endpoint: median survival time, dose: 200.0 mg/kg/injection, schedule: Q01DX009 (ip), vehicle: saline). Moreover, the T/C (endpoint: median survival time, dose: 400.0 mg/kg/injection, schedule: Q01DX009 (ip), vehicle: saline) is 111 % of control.

On to `O=S1(=O)CC2(C1)CS(=O)(=O)C2`, for which the T/C by setting is: under setting [7], 103 % of control; under setting [8], 90 % of control.

In the case of `C=CCc1cccc(OC)c1OCCN(CC)CC`, the T/C was 102 % of control (endpoint: mean survival time, dose: 5.0 mg/kg/injection, schedule: Q01DX009 (ip), vehicle: saline with Tween-80); 94 % of control (endpoint: mean survival time, dose: 5.0 mg/kg/injection, schedule: Q04DX003 (ip), vehicle: saline with Tween-80); 96 % of control (endpoint: mean survival time, dose: 10.0 mg/kg/injection, schedule: Q01DX009 (ip), vehicle: saline with Tween-80); 96 % of control (endpoint: mean survival time, dose: 10.0 mg/kg/injection, schedule: Q04DX003 (ip), vehicle: saline with Tween-80); 91 % of control (endpoint: mean survival time, dose: 20.0 mg/kg/injection, schedule: Q01DX009 (ip), vehicle: saline with Tween-80); 96 % of control (endpoint: mean survival time, dose: 20.0 mg/kg/injection, schedule: Q04DX003 (ip), vehicle: saline with Tween-80).

Take `COc1cc(Cc2nccc3ccccc23)cc([N+](=O)[O-])c1OC`: the T/C under setting [7] was 97 % of control; the T/C under setting [8] was 92 % of control; the T/C (endpoint: mean survival time, dose: 400.0 mg/kg/injection, schedule: Q01DX001 (ip), vehicle: saline with Tween-80) was 89 % of control.

For the compound `CCN(CC)Cc1cc2[nH]c3c4ccc(Cl)cc4ncc3c2cc1OC`, the T/C by setting is: (endpoint: median survival time, dose: 6.25 mg/kg/injection, schedule: Q01DX009 (ip), vehicle: saline with Tween-80) 102 % of control; (endpoint: median survival time, dose: 12.5 mg/kg/injection, schedule: Q01DX009 (ip), vehicle: saline with Tween-80) 102 % of control; (endpoint: median survival time, dose: 25.0 mg/kg/injection, schedule: Q01DX009 (ip), vehicle: saline with Tween-80) 103 % of control; (endpoint: median survival time, dose: 50.0 mg/kg/injection, schedule: Q01DX009 (ip), vehicle: saline with Tween-80) 111 % of control.

In the case of `S=C(NNc1ccccc1)NC1CCCCC1`, the T/C is, setting by setting: (endpoint: mean survival time, dose: 25.0 mg/kg/injection, schedule: Q01DX009 (ip), vehicle: acetone) 96 % of control; (endpoint: mean survival time, dose: 50.0 mg/kg/injection, schedule: Q01DX009 (ip), vehicle: acetone) 100 % of control; (endpoint: mean survival time, dose: 100.0 mg/kg/injection, schedule: Q01DX009 (ip), vehicle: acetone) 96 % of control.

Regarding `CCCCS(=O)(=O)c1ccc(Cl)cc1`, the T/C reads like this: under setting [4], 96 % of control; under setting [5], 100 % of control; under setting [6], 105 % of control.

For `CN(C)CCSCC(=O)N1c2ccccc2Sc2ccccc21`, the T/C (endpoint: mean survival time, dose: 100.0 mg/kg/injection, schedule: Q04DX003 (ip), vehicle: saline) is 96 % of control.

Regarding `O=CO.[Tl]`, the T/C by setting is: (endpoint: mean survival time, dose: 5.0 mg/kg/injection, schedule: Q01DX001 (ip), vehicle: saline) 104 % of control; (endpoint: mean survival time, dose: 10.0 mg/kg/injection, schedule: Q01DX001 (ip), vehicle: saline) 98 % of control; (endpoint: mean survival time, dose: 20.0 mg/kg/injection, schedule: Q01DX001 (ip), vehicle: saline) 95 % of control; (endpoint: mean survival time, dose: 40.0 mg/kg/injection, schedule: Q01DX001 (ip), vehicle: saline) 98 % of control; (endpoint: mean survival time, dose: 80.0 mg/kg/injection, schedule: Q01DX001 (ip), vehicle: saline) 104 % of control.
